Measurements from patent US10022394B2, “Antiinfective composition” (priority 2011, dated 2018).

System: viruses
Assay: in vitro virucidal action
Settings: as the degree of hydroxymethylation increases

hydroxymethyl-hyaluronic acid
virucidal action: increased
